The NIST ThermoML archive (doi:10.1016/j.jct.2012.05.014)

Experiment: xn = mol fraction of the nth substance listed
Conditions: Fluid (supercritical or subcritical phases), Gravimetric method

CCCCCCNC(=O)C(=O)NCCCCCC [N1,N2-dihexyloxalamide] + O=C=O
Conditions | mass density [kg/m3]
313 K, 9100 kPa, x1 = 0.000112 | 517.19
313 K, 9500 kPa, x1 = 0.0002518 | 584.52
313 K, 9800 kPa, x1 = 0.000392 | 615.65
313 K, 10100 kPa, x1 = 0.0005214 | 638.82
313 K, 10400 kPa, x1 = 0.0006463 | 657.22
323 K, 10700 kPa, x1 = 0.0001583 | 472.58
323 K, 11100 kPa, x1 = 0.0003041 | 515.81
323 K, 11400 kPa, x1 = 0.0004264 | 543.31
323 K, 11700 kPa, x1 = 0.0005407 | 566.85
323 K, 12000 kPa, x1 = 0.0006537 | 587.07
333 K, 11900 kPa, x1 = 0.0002196 | 428.55
333 K, 12300 kPa, x1 = 0.0003629 | 458.89
333 K, 12600 kPa, x1 = 0.0004822 | 480.5
333 K, 12900 kPa, x1 = 0.0006024 | 500.8
333 K, 13200 kPa, x1 = 0.0007245 | 519.67
343 K, 12500 kPa, x1 = 0.000277 | 374.67
343 K, 12900 kPa, x1 = 0.0003827 | 397.3
343 K, 13200 kPa, x1 = 0.0004661 | 414.22
343 K, 13500 kPa, x1 = 0.00056 | 430.94
343 K, 13700 kPa, x1 = 0.0006445 | 441.9
353 K, 12800 kPa, x1 = 0.0003133 | 331.22
353 K, 13300 kPa, x1 = 0.0004305 | 353.15
353 K, 13700 kPa, x1 = 0.0005336 | 370.9
353 K, 14000 kPa, x1 = 0.0006155 | 384.26
353 K, 14300 kPa, x1 = 0.0007224 | 397.58

CCCCCCCCNC(=O)C(=O)NCCCCCCCC [N1,N2-dioctyloxalamide] + O=C=O
Conditions | mass density [kg/m3]
313 K, 11700 kPa, x1 = 0.0001449 | 710.44
313 K, 12000 kPa, x1 = 0.0001679 | 719.38
313 K, 12500 kPa, x1 = 0.0002108 | 732.67
313 K, 13000 kPa, x1 = 0.00025 | 744.41
313 K, 13400 kPa, x1 = 0.000284 | 752.9
323 K, 12300 kPa, x1 = 0.0001146 | 604.62
323 K, 12900 kPa, x1 = 0.0001562 | 633.72
323 K, 13400 kPa, x1 = 0.000212 | 653.57
323 K, 13900 kPa, x1 = 0.0002628 | 670.57
323 K, 14400 kPa, x1 = 0.0003178 | 685.43
333 K, 12900 kPa, x1 = 9.49e-05 | 500.8
333 K, 13500 kPa, x1 = 0.0001511 | 537.09
333 K, 13900 kPa, x1 = 0.0002093 | 558.17
333 K, 14400 kPa, x1 = 0.0002622 | 581.45
333 K, 14800 kPa, x1 = 0.0003278 | 597.96
343 K, 13400 kPa, x1 = 9.77e-05 | 425.4
343 K, 13700 kPa, x1 = 0.0001344 | 441.9
343 K, 14000 kPa, x1 = 0.0001772 | 457.97
343 K, 14300 kPa, x1 = 0.0002091 | 473.49
343 K, 14600 kPa, x1 = 0.0002392 | 488.4
353 K, 13600 kPa, x1 = 0.0001134 | 366.46
353 K, 14000 kPa, x1 = 0.0001546 | 384.26
353 K, 14400 kPa, x1 = 0.0002019 | 402
353 K, 14700 kPa, x1 = 0.0002432 | 415.16
353 K, 15000 kPa, x1 = 0.0002821 | 428.15

CCCCNC(=O)C(=O)NCCCC [N,N'-dibutyloxalamide] + O=C=O
Conditions | mass density [kg/m3]
313 K, 9100 kPa, x1 = 0.0002628 | 517.19
313 K, 9300 kPa, x1 = 0.0005167 | 556.08
313 K, 9500 kPa, x1 = 0.0008035 | 584.52
313 K, 9700 kPa, x1 = 0.001136 | 606.4
313 K, 9800 kPa, x1 = 0.001295 | 615.65
323 K, 10300 kPa, x1 = 0.0001531 | 423.74
323 K, 10600 kPa, x1 = 0.0003084 | 460.74
323 K, 10900 kPa, x1 = 0.000518 | 495.1
323 K, 11100 kPa, x1 = 0.0007008 | 515.81
323 K, 11300 kPa, x1 = 0.000942 | 534.61
333 K, 11600 kPa, x1 = 0.0003355 | 405.21
333 K, 12000 kPa, x1 = 0.0005099 | 436.26
333 K, 12300 kPa, x1 = 0.0007204 | 458.89
333 K, 12500 kPa, x1 = 0.0009202 | 473.43
333 K, 12700 kPa, x1 = 0.001115 | 487.42
343 K, 12100 kPa, x1 = 0.0003508 | 352.31
343 K, 12500 kPa, x1 = 0.000503 | 374.67
343 K, 12800 kPa, x1 = 0.000639 | 391.64
343 K, 13000 kPa, x1 = 0.0007821 | 402.95
343 K, 13200 kPa, x1 = 0.0009026 | 414.22
353 K, 12600 kPa, x1 = 0.0003735 | 322.59
353 K, 13100 kPa, x1 = 0.0005294 | 344.33
353 K, 13500 kPa, x1 = 0.0006999 | 362.01
353 K, 13800 kPa, x1 = 0.0008396 | 375.36
353 K, 14000 kPa, x1 = 0.0009729 | 384.26
